Test results as given in patent US20260234115A1, “LIPID COMPOUNDS, COMPOSITIONS, AND USES THEREOF” (Liberate Bio, Inc., priority 2023, published 2026).
Marks after values point to notes of the source that are not given here.

How the values were obtained:
[1] = Plate-based fluorescence (RiboGreen) assay: nucleic acid cargo content and encapsulation efficiency of LNPs; assay type: physicochemical; conditions: for EE (%) N/P:6 / EE (%) N/P:3: LNP
Outline: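 LNPs made by microfluidic mixing of ethanolic lipids with mRNA in pH 4.0 citrate, dialyzed into PBS pH 7.4. Cargo quantified by RiboGreen fluorescence against a standard curve: Triton-lysed samples give total, TE-only samples give free cargo; encapsulation efficiency from their ratio.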

[2] = Dynamic light scattering: LNP particle size and PDI; assay type: physicochemical; conditions: for PDI N/P:6 / Size (nm) N/P:6 / PDI N/P:3 / Size (nm) N/P:3: LNP
Outline: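 The LNPs were made by microfluidic mixing of the lipids in ethanol with mRNA in pH 4.0 citrate, then dialyzed into PBS pH 7.4. They were diluted in PBS pH 7.4, and particle size and PDI were measured by dynamic light scattering.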

mouse organs = assay: In vivo activity screening in mice: organ mean total flux (p/s) of luciferase activity after injection of F2 LNP pools (Table 6, FIG. 7A-7C); conditions: luciferase mRNA
Outline: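 Luciferase output per organ is reported as mean total flux (p/s) from IVIS regions of interest. Organs were collected from perfused C57BL/6J mice and imaged 10-15 min after s.c. D-luciferin, 4-6 h after i.v. dosing. Dosing was 0.25-3 mg/kg luciferase mRNA in F2 LNP pools.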

[3] = LNP compositions for in vivo mouse study, four formulations (F1-F4) pooled, or pools of four compounds
[4] = LNP compositions for in vivo mouse study, four formulations (F1-F4) of the lipid compound pooled, or pools of four compounds (sixteen compositions)
[5] = LNP compositions for Formulation F2 Study

Compound | EE % [1, 3] | mRNA Content [1, 3] | EE (%) N/P:6 ([1]; Formulation F1, N/P 6) | EE (%) N/P:6 ([1]; Formulation F2, N/P 6) | EE (%) N/P:6 ([1]; Formulation F3, N/P 6) | EE (%) N/P:6 ([1]; Formulation F4, N/P 6) | Particle Size (nm) [2, 4] | PDI [2, 3] | PDI N/P:6 ([2]; Formulation F1, N/P 6) | Size (nm) N/P:6 ([2]; Formulation F1, N/P 6) | PDI N/P:6 ([2]; Formulation F2, N/P 6) | Size (nm) N/P:6 ([2]; Formulation F2, N/P 6) | PDI N/P:6 ([2]; Formulation F3, N/P 6) | Size (nm) N/P:6 ([2]; Formulation F3, N/P 6) | PDI N/P:6 ([2]; Formulation F4, N/P 6) | Size (nm) N/P:6 ([2]; Formulation F4, N/P 6) | Organ Mean Total Flux Femur (mouse organs; Mouse 1, dose 0.3 mg/kg) | Organ Mean Total Flux Heart (mouse organs; Mouse 1, dose 0.3 mg/kg) | Organ Mean Total Flux Kidney (mouse organs; Mouse 1, dose 0.3 mg/kg) | Organ Mean Total Flux Liver (mouse organs; Mouse 1, dose 0.3 mg/kg) | also measured
CCCCC/C=C\CCOC(=O)CCCCCC(=O)OCC(COC(=O)CCCCCC(=O)OCC/C=C\CCCCC)(COC(=O)CCC(CCCCCC)OC(=O)NCCN1CCCC1)COC(=O)CCC(OCCCCCCCC)OCCCCCCCC (centres unmarked) [Compound 9, O7-[2-(4,4-dioctoxybutanoyloxymethyl)-2-[[7-[(Z)-non-3-enoxy]-7-oxo-heptanoyl]oxymethyl]-3-[4-(2-pyrrolidin-1ylethylcarbamoyloxy)decanoyloxy]propyl]O1-[(Z)-non-3-enyl]heptanedioate] | 97% | 102 µg/mL | 100% | 100% | 99% | 99% | 79 nm | 0.07 | 0.07 | 68 ± 2 nm | 0.03 | 76 ± 1 nm | 0.03 | 92 ± 2 nm | 0.13 | 63 ± 1 nm | 7.6 p/s (×10^6) | 1.4 p/s (×10^6) | 3.4 p/s (×10^6) | 3583 p/s (×10^6) | Organ Mean Total Flux Lung (mouse organs; Mouse 1, dose 0.3 mg/kg): 29.8 p/s (×10^6); Organ Mean Total Flux Muscle (mouse organs; Mouse 1, dose 0.3 mg/kg): 8.3 p/s (×10^6); Organ Mean Total Flux Pancreas (mouse organs; Mouse 1, dose 0.3 mg/kg): 6.7 p/s (×10^6); Organ Mean Total Flux Spleen (mouse organs; Mouse 1, dose 0.3 mg/kg): 32.5 p/s (×10^6)
CCCCCCCC/C=C\CCCCCCCC(=O)OCC(COC(=O)CCCCCCC/C=C\CCCCCCCC)(COC(=O)CCCCCCC/C=C\CCCCCCCC)COC(=O)CCC(CCCCCC)OC(=O)NCCN1CCCC1 (centres unmarked) [Compound 1, 2-((oleoyloxy)methyl)-2-(((4-(((2-(pyrrolidin-1-yl)ethyl)carbamoyl)oxy)decanoyl)oxy)methyl)propane-1,3-diyl dioleate] | 99% | 102.4 µg/mL | 100% | 100% | 100% | 100% | 89.9 nm | 0.143 | 0.072 | 74 ± 1 nm | 0.069 | 89 ± 2 nm | 0.051 | 107 ± 3 nm | 0.151 | 58 ± 2 nm | 0.8 p/s (×10^6) | 0.1 p/s (×10^6) | 0.1 p/s (×10^6) | 17.5 p/s (×10^6) | EE (%) N/P:3 ([1]; Formulation F1, N/P 3): 97%; EE (%) N/P:3 ([1]; Formulation F2, N/P 3): 98%; EE (%) N/P:3 ([1]; Formulation F3, N/P 3): 97%; EE (%) N/P:3 ([1]; Formulation F4, N/P 3): 98%; PDI N/P:3 ([2]; Formulation F1, N/P 3): 0.084; Size (nm) N/P:3 ([2]; Formulation F1, N/P 3): 85 ± 4 nm; PDI N/P:3 ([2]; Formulation F2, N/P 3): 0.052; Size (nm) N/P:3 ([2]; Formulation F2, N/P 3): 99 ± 2 nm; PDI N/P:3 ([2]; Formulation F3, N/P 3): 0.037; Size (nm) N/P:3 ([2]; Formulation F3, N/P 3): 136 ± 3 nm; PDI N/P:3 ([2]; Formulation F4, N/P 3): 0.153; Size (nm) N/P:3 ([2]; Formulation F4, N/P 3): 78 ± 1 nm; Organ Mean Total Flux Lung (mouse organs; Mouse 1, dose 0.3 mg/kg): 0.5 p/s (×10^6); Organ Mean Total Flux Muscle (mouse organs; Mouse 1, dose 0.3 mg/kg): 0.6 p/s (×10^6); Organ Mean Total Flux Pancreas (mouse organs; Mouse 1, dose 0.3 mg/kg): 0.2 p/s (×10^6); Organ Mean Total Flux Spleen (mouse organs; Mouse 1, dose 0.3 mg/kg): 1.7 p/s (×10^6)
CCCCC/C=C\CCOC(=O)CCCCCC(=O)OCC(COC(=O)CCCCCC(=O)OCC/C=C\CCCCC)(COC(=O)CCC(CCCCCC)OC(=O)NCCN1CCCC1)COC(=O)CC12CC3CC(CC(C3)C1)C2 (centres unmarked) [Compound 8, O7-[2-[[2-(1-adamantyl)acetyl]oxymethyl]-2-[[7-[(Z)-non-3-enoxy]-7-oxo-heptanoyl]oxymethyl]-3-[4-(2-pyrrolidin-1-ylethylcarbamoyloxy)decanoyloxy]propyl]O1-[(Z)-non-3-enyl]heptanedioate] | 97% | 108 µg/mL | 100% | 99% | 95% | 99% | 101 nm | 0.07 | 0.08 | 87 ± 6 nm | 0.06 | 117 ± 4 nm | 0.12 | 100 ± 2 nm | 0.19 | 79 ± 1 nm | 11.1 p/s (×10^6) | 2.8 p/s (×10^6) | 0.8 p/s (×10^6) | 72.4 p/s (×10^6) | EE % [1, 5]: 98%; PDI [2, 5]: 0.071; Particle Size (nm) [2, 5]: 119 nm; Organ Mean Total Flux Lung (mouse organs; Mouse 1, dose 0.3 mg/kg): 20.1 p/s (×10^6); Organ Mean Total Flux Muscle (mouse organs; Mouse 1, dose 0.3 mg/kg): 22.7 p/s (×10^6); Organ Mean Total Flux Pancreas (mouse organs; Mouse 1, dose 0.3 mg/kg): 4.4 p/s (×10^6); Organ Mean Total Flux Spleen (mouse organs; Mouse 1, dose 0.3 mg/kg): 10.7 p/s (×10^6); Organ Mean Total Flux Femur (mouse organs; Mouse 14, dose 0.5 mg/kg): 9.8 p/s (×10^6); Organ Mean Total Flux Heart (mouse organs; Mouse 14, dose 0.5 mg/kg): 2.2 p/s (×10^6); Organ Mean Total Flux Kidney (mouse organs; Mouse 14, dose 0.5 mg/kg): 3.6 p/s (×10^6); Organ Mean Total Flux Liver (mouse organs; Mouse 14, dose 0.5 mg/kg): 257.0 p/s (×10^6); Organ Mean Total Flux Lung (mouse organs; Mouse 14, dose 0.5 mg/kg): 6.4 p/s (×10^6); Organ Mean Total Flux Muscle (mouse organs; Mouse 14, dose 0.5 mg/kg): 46.9 p/s (×10^6); Organ Mean Total Flux Pancreas (mouse organs; Mouse 14, dose 0.5 mg/kg): 4.0 p/s (×10^6); Organ Mean Total Flux Spleen (mouse organs; Mouse 14, dose 0.5 mg/kg): 10.4 p/s (×10^6)
CCCCCCCC/C=C\CCCCCCCC(=O)OCC(COC(=O)CCCCCCC/C=C\CCCCCCCC)(COC(=O)CCC(CCCCCC)OC(=O)NCCN1CCCC1)COC(=O)CCC(OCCCCCCCC)OCCCCCCCC (centres unmarked) [Compound 4, [2-(4,4-dioctoxybutanoyloxymethyl)-2-[[(Z)-octadec-9-enoyl]oxymethyl]-3-[4-(2-pyrrolidin-1-ylethylcarbamoyloxy)decanoyloxy]propyl](Z)-octadec-9-enoate] | 99% | 99.1 µg/mL | 100% | 100% | 100% | 100% | 93.4 nm | 0.022 | 0.063 | 78 ± 2 nm | 0.069 | 93 ± 1 nm | 0.08 | 108 ± 2 nm | 0.12 | 73 ± 2 nm | 15.6 p/s (×10^6) | 4.4 p/s (×10^6) | 0.8 p/s (×10^6) | 105.0 p/s (×10^6) | EE (%) N/P:3 ([1]; Formulation F1, N/P 3): 98%; EE (%) N/P:3 ([1]; Formulation F2, N/P 3): 98%; EE (%) N/P:3 ([1]; Formulation F3, N/P 3): 94%; EE (%) N/P:3 ([1]; Formulation F4, N/P 3): 98%; PDI N/P:3 ([2]; Formulation F1, N/P 3): 0.092; Size (nm) N/P:3 ([2]; Formulation F1, N/P 3): 86 ± 10 nm; PDI N/P:3 ([2]; Formulation F2, N/P 3): 0.041; Size (nm) N/P:3 ([2]; Formulation F2, N/P 3): 97 ± 1 nm; PDI N/P:3 ([2]; Formulation F3, N/P 3): 0.089; Size (nm) N/P:3 ([2]; Formulation F3, N/P 3): 116 ± 6 nm; PDI N/P:3 ([2]; Formulation F4, N/P 3): 0.068; Size (nm) N/P:3 ([2]; Formulation F4, N/P 3): 73 ± 0 nm; Organ Mean Total Flux Lung (mouse organs; Mouse 1, dose 0.3 mg/kg): 39.9 p/s (×10^6); Organ Mean Total Flux Muscle (mouse organs; Mouse 1, dose 0.3 mg/kg): 18.4 p/s (×10^6); Organ Mean Total Flux Pancreas (mouse organs; Mouse 1, dose 0.3 mg/kg): 5.0 p/s (×10^6); Organ Mean Total Flux Spleen (mouse organs; Mouse 1, dose 0.3 mg/kg): 17.6 p/s (×10^6)
